Measured values from paper PMC12266748, “A Xanthine Derivative With Novel Heat Shock Protein 90‐Alpha Inhibitory and Senolytic Properties” (Aging Cell, 2025).
pEC50: −log10 of the molar value. Read-outs that look alike come from different tables or passages of the source.

Tests used:
[1] = test system: IMR90 cells; test: Dose-response curves on proliferating and replicative senescent IMR90 (Trypan blue cell count); assay type: cell-based; conditions: for pEC50: Homo sapiens, IMR-90
Excerpt: (§1) IMR90 and WI38 lung fibroblasts were purchased from ECACC‐Merck. Human bone marrow (BM)‐derived mesenchymal stromal cells (MSCs) were purchased from Lonza. Human umbilical vein endothelial cells (HUVECs) are primary cells obtained from a pool of donors purchased from Clonetics (Lonza). Murine ear fibroblasts (MearFs) were obtained from C57BL/6J mice maintained in the INRCA “Specific Pathogen Free” (SPF) animal facility. MCF7 breast cancer cells were purchased from ATCC. For dose–response curves, IMR90 and WI38 were induced to senescence through replicative passages; MSCs, HUVECs, and MearFs senescence was induced with Doxorubicin; MCF7 senescence was induced with 4‐Hydroxytamoxifen (Lee et al. [2014]). The EC50 was calculated using GraphPad Prism 10 software. All treatment specifications are reported in the extended section.
Cell culture and treatment. IMR90 cells (Homo sapiens, fetal lung, fibroblast) and WI38 cells (Homo sapiens, fetal lung, fibroblast) were purchased from ECACC-Merck (Merck, Darmstadt, Germany) and cultured in MEM medium (Euroclone, Milano, Italy) supplemented with 1% L-Glutamine (Euroclone, Milano, Italy), 1% Penicillin-Streptomycin (Euroclone, Milano, Italy), and 10% Fetal Bovine Serum (FBS, Euroclone, Milano, Italy), at 37°C, 5% CO2. IMR90 cells with a population doubling (PD) from PD15 to PD23 were used; cells were considered incrementally senescent from passage PD19 to passage PD23. WI38 cells were used from PD26 to PD53. Cells were considered incrementally senescent from passage PD49 to passage PD53. For the compounds in vitro screening, IMR90 cells with passages from PD15 to PD23 were tested at increasing concentrations of 0.5 μM, 1 μM, 10 μM, and 25 μM over 24 and 48 h to evaluate the compounds' efficacy and cytotoxicity compared to the Vehicle (DMSO ≤ 0.1%). Cells were counted manually, in triplicate, using Trypan blue reagent (Euroclone) and disposable Bürker chambers. […] K5 dose-response proliferation curves were performed with compound K5 (Molport, SIA, Riga, Latvia) in concentrations 0.1, 0.5, 1, 5, 10, 50, 100, and 200 μM for 48 h. Cells were counted using a Trypan blue reagent and EVAplus cell counter. The EC50s were calculated by analyzing the data using GraphPad Prism 10 software.
MCF7 cell line (ATCC; HTB-22, Homo sapiens, breast cancer) was purchased from ATCC; cells were grown in MEM medium (Corning, New York, USA, #15-010-CVR) supplemented with 10% FBS (Gibco, Invitrogen, Carlsbad, CA, USA, #10270106), 1% glutamine (Corning #25005-CI), 1% penicillin and streptomycin (Corning #30002-CI). Cells were incubated at 37 °C with 5% CO2. Senescent status induction: MCF7 were plated 24 h before the treatment with 4-Hydroxytamoxifen (TAM) 10 μM to induce the senescence described by (Lee et al. 2014). Control cultures were treated with equal volumes of 75% ethanol as the vehicle. The treatment with TAM lasts 96 h, after which the cells have been washed and treated with the senolytic drugs K5 10 µM for another 96 h. The treatment with the senolytic compounds has been renewed at 48 h. Cell mortality and vitality curves after treatment with K5 (10 μM, orange) or Vehicle (DMSO, grey) were monitored using the Incucyte live-cell Analysis system (Sartorius, Goettingen, Germany). The estimated Senolytic index (SI) was calculated as the ratio between the EC50 in proliferating cells and the EC50 in senescent cells, extrapolated using GraphPad Prism 10 software.

[2] = test system: Mouse ear fibroblasts (MearF); test: MTT viability of Doxorubicin-induced senescent and non-senescent murine ear fibroblasts; assay type: cell-based, C57BL/6J mice; conditions: for pEC50: Mus musculus, Fibroblast
Excerpt: as §1
Cell viability was determined using an MTT assay. Absorbance was measured using a NB‐12‐0035 Microplate Reader (NeoBiotech Co.). Data are expressed as a percentage of viability compared with untreated cells.
Murine ear fibroblasts (MearFs) were obtained from C57BL/6J mice maintained in the INRCA "Specific Pathogen Free" (SPF) animal facility. The ear biopsies (2 mm radius) were obtained with a dedicated puncher, and cells recovered as previously described (Malavolta et al. 2022). Cells were seeded at a density of 5000/cm^2 in T75 flasks (Corning Costar, Sigma Aldrich, St. Louis, MO, USA) and maintained at 37°C in a 95% humidified incubator with 5% CO2. Culture was carried out in RPMI (Euroclone, Milano, Italy) supplemented with 10% Fetal Calf Serum (FCS, Sigma-Aldrich, St. Louis, MO, USA), 2mM L-Glutamine, 100 U/mL penicillin and […] streptomycin (all from Sigma- Aldrich, St. Louis, MO, USA). At approximately 80% confluence, the cells were detached from the plate by incubation with trypsin-EDTA (Sigma-Aldrich, St. Louis, MO, USA) for 5 min at 37 °C and re-plated. For Doxorubicin-induced senescence, cells were seeded in a 96-well plate at a 5000 cells/cm2 density. MSC cells were treated with 100 nM Doxorubicin (DOX) for 24 h and then maintained with medium for 4 days; HUVECs were treated with 50 nM DOX for 24 h and then maintained with medium for 4 days. MearFs were induced to senescence by continuous exposure (5 days) to 75 nM DOX. […]
Cell viability assay. Cell viability has been determined with MTT (3-(4,5-dimethylthiazol-2-yl)-2, 5-diphenyltetrazolium bromide) assay. […] Insoluble formazan salts produced were solubilized with DMSO incubation, and then absorbance was measured at 540 nm using a microplate reader (NB-12-0035 Microplate Reader, NeoBiotech Co., Seoul, Republic of Korea). Data are expressed as a percentage of viability compared with untreated cells (the control group has been considered 100% of viability).

Cc1ccccc1-n1c(=O)n(Cc2ccccc2)c(=O)c2[nH]cnc21 [Compound K5, 1-benzyl-3-(2-methylphenyl)-7H-purine-2,6-dione]
pEC50 ([1]; IMR90, Replicative/passages, read-out: EC50 senescent cells): 6.42 | pEC50 ([1]; IMR90, read-out: EC50 proliferating cells): < 3.30 | Senolytic evidence (no, partly/yes) ([1]; IMR90, Replicative/passages): Yes | Senolytic index (estimated) ([1]; IMR90, SI = EC50 in proliferating cells/EC50 senescent cells): > 1320 | toxicity in proliferating cells ([1]; proliferating IMR90 (PD15), 100 nM to 200 μM, 48 h): no evident toxicity | Senolytic evidence (no, partly/yes) ([2]; DNA damage (Doxorubicin)): No | difference in vitality, DOXO-induced senescent vs non-senescent proliferating cells ([2]; MTT): no discernible difference | pEC50 ([2]; DNA damage (Doxorubicin), MTT, read-out: EC50 senescent cells): < 3.30 | pEC50 ([2]; MTT, read-out: EC50 proliferating cells): < 3.30
